From patent publication US20040102431A1, “Substituted amino-aza-cycloalkanes useful against malaria” (priority 2000, published 2004)
Like-named read-outs stand apart in the source and are kept apart here.

Target: plasmepsin II (Plasmodium falciparum, UniProt P46925)
Test: biochemical
[1] = Additional Examples table, FRET, pH 5, 37° C., 40 min, substrate 1 μM, read-out: IC50 (nM) on plasmepsin II
[2] = […], FRET, pH 5, 37° C., 40 min, substrate 1 μM, read-out: IC50 (nM) on plasmepsin II

Chain of plasmepsin II (P46925 125-453): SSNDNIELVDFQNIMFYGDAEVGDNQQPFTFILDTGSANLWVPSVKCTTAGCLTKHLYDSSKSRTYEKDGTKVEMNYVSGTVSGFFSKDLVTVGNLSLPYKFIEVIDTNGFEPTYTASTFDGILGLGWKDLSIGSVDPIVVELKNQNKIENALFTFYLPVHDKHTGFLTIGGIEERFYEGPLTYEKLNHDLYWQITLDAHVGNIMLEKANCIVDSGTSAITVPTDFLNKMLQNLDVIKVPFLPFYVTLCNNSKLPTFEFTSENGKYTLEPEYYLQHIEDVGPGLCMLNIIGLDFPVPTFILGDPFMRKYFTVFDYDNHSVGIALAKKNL

IC50 [1] | Compound | also measured
61 nM | CCCCCc1ccc(C(=O)N(Cc2ccc(-c3ccccc3F)cc2)C2CCN(Cc3ccccc3)CC2)cc1 [Example 53, N-(1-Benzylpiperidin-4-yl)-N-(2′-fluorobiphenyl-4-ylmethyl)-4-pentylbenzamide] | –
– | CCCCCc1ccc(C(=O)N(Cc2ccc(-c3ccccc3)cc2)C2CCCN(Cc3ccccc3)CC2)cc1 (racemic) [Example 35] | IC50 [2]: 1700 nM
749 nM | CCCCCc1ccc(C(=O)N(C2CCN(Cc3ccccc3)CC2)[C@H](CO)Cc2ccc(OCc3ccccc3)cc2)cc1 [Example 111, N-[(1S)-2-(4-Benzyloxyphenyl)-1-hydroxymethylethyl]-N-(1-benzyl-piperidin-4-yl)-4-pentylbenzamide] | –
– | CCCCOc1ccc(C(=O)N(Cc2ccc(-c3ccccc3)cc2)C2CCN(Cc3ccccc3)CC2)cc1 [Example 15] | IC50 [2]: 1300 nM
102 nM | CCCCCc1ccc(C(=O)N(Cc2ccc(-c3cccnc3)cc2)C2CCN(Cc3ccncc3)CC2)cc1 [Example 64, 4-Pentyl-N-(4-pyridin-3-yl-benzyl)-N-(1-pyridin-4-ylmethylpiperidin-4-yl)benzamide] | –
656 nM | CCCCCc1ccc(CN(Cc2ccc(-c3ccccc3F)cc2)C2CCN(Cc3ccccc3)CC2)cc1 [Example 109, (1-Benzylpiperidin-4-yl)-(2′-fluoro-biphenyl-4-ylmethyl)-(4-pentyl-benzyl)amine] | –
– | CCCCCc1ccc(C(=O)N(Cc2ccc(-c3ccccc3)cc2)C2CCN(Cc3ccccc3)CC2)cc1 [Example 14] | IC50 [2]: 84 nM
414 nM | CCCCCc1ccc(CN(Cc2ccc(OCc3ccc(F)cc3)cc2)C2CCN(Cc3ccccc3)CC2)cc1 [Example 102, (1-Benzylpiperidin-4-yl)-[4-(4-fluorobenzyloxy)benzyl]-(4-pentylbenzyl)amine] | –
– | CCCCCc1ccc(C(=O)N(Cc2ccc(-c3ccccc3)cc2)[C@H]2CCN(Cc3ccccc3)C2)cc1 [Example 36] | IC50 [2]: 164 nM
19 nM | CCCCCc1ccc(C(=O)N(Cc2ccc(-c3ccc(OC)c(OC)c3)cc2)C2CCN(CC3=CCCCC3)CC2)cc1 [Example 38, N-(1-Cyclohex-1-enylmethyl-piperidin-4-yl)-N-(3′,4′-dimethoxybiphenyl-4-ylmethyl)-4-pentylbenzamide] | –
103 nM | CCCCCc1ccc(C(=O)N(Cc2ccc(-c3ccccc3)cc2)C2CCN(Cc3cccnc3)CC2)cc1 [Example 65, N-Biphenyl-4-ylmethyl-4-pentyl-N-(1-pyridin-3-ylmethylpiperidin-4-yl)benzamide] | –
– | CCCCCc1ccc(C(=O)N(Cc2ccc(OCc3ccccc3)c(OCc3ccccc3)c2)C2CCN(Cc3ccccc3)CC2)cc1 [Example 10] | IC50 [2]: 1200 nM
260 nM | CCCCCc1ccc(C(=O)N(Cc2ccc(-c3ccc(F)cc3)cc2)C2CCN(Cc3ccccc3)CC2)cc1 [Example 89, N-(1-Benzylpiperidin-4-yl)-N-(4′-fluorobiphenyl-4-ylmethyl)-4-pentylbenzamide] | –
123 nM | CCCCCc1ccc(C(=O)N(Cc2ccc(-c3ccccc3F)cc2)C2CCN(CC3=CCCCC3)CC2)cc1 [Example 69, N-(1-Cyclohex-1-enylmethylpiperidin-4-yl)-N-(2′-fluorobiphenyl-4-ylmethyl)-4-pentylbenzamide] | –
211 nM | CCCCCc1ccc(C(=O)N(Cc2ccc(-c3cccnc3)cc2)C2CCN(Cc3cc4ccccc4o3)CC2)cc1 [Example 85, N-(1-Benzofuran-2-ylmethyl-piperidin-4-yl)-4-pentyl-N-(4-pyridin-3-yl-benzyl)benzamide] | –
187 nM | CCCCCc1ccc(C(=O)N(Cc2ccc(OC(F)(F)F)cc2)C2CCN(Cc3ccccc3)CC2)cc1 [Example 80, N-(1-Benzylpiperidin-4-yl)-4-pentyl-N-(4-trifluoromethoxybenzyl)benzamide] | –
– | CCCCCCCCCCCC(=O)N(Cc1ccc(-c2ccccc2)cc1)C1CCN(Cc2ccccc2)CC1 [Example 16] | IC50 [2]: 1300 nM
933 nM | CCCCCC(=Cc1ccccc1)CN(C(=O)c1ccc(CCCCC)cc1)C1CCN(Cc2ccccc2)CC1 [Example 117, N-(1-Benzylpiperidin-4-yl)-4-pentyl-N-(2-pentyl-3-phenylallyl)benzamide] | –
87 nM | CCCCCc1ccc(C(=O)N(Cc2ccc(-c3ccccc3F)cc2)C2CCN(Cc3ccoc3)CC2)cc1 [Example 60, N-(2′-Fluorobiphenyl-4-ylmethyl)-N-(1-furan-3-ylmethylpiperidin-4-yl)-4-pentylbenzamide] | –
54 nM | CCCCCc1ccc(C(=O)N(Cc2ccc(-c3ccc4c(c3)OCO4)cc2)C2CCN(Cc3ccncc3)CC2)cc1 [Example 50, N-(4-Benzo[1,3]dioxol-5-yl-benzyl)-4-pentyl-N-(1-pyridin-4-ylmethylpiperidin-4-yl)benzamide] | –
385 nM | CCCCCc1ccc(C(=O)N(Cc2ccc(-c3ccccc3)cc2)C2CCN(Cc3ccc(F)cc3)CC2)cc1 [Example 101, N-Biphenyl-4-ylmethyl-N-[1-(4-fluorobenzyl)piperidin-4-yl]-4-pentylbenzamide] | –
176 nM | CCCCCc1ccc(C(=O)N(Cc2ccc(-c3ccccn3)cc2)C2CCN(Cc3ccncc3)CC2)cc1 [Example 79, 4-Pentyl-N-(4-pyridin-2-yl-benzyl)-N-(1-pyridin-4-ylmethylpiperidin-4-yl)benzamide] | –

IC50 [1] | Compound | also measured
– | CCCCCc1ccc(CN(Cc2ccc(C(F)(F)F)cc2)C2CCN(Cc3ccccc3)CC2)cc1 [Example 30] | IC50 [2]: 695 nM
– | CCCCCc1ccc(C(=O)N(CCCc2ccccc2)C2CCN(Cc3ccccc3)CC2)cc1 [Example 2] | IC50: 1500 nM
42 nM | CCCCCc1ccc(C(=O)N(Cc2ccc(-c3cccnc3)cc2)C2CCN(Cc3ccsc3)CC2)cc1 [Example 45, 4-Pentyl-N-(4-pyridin-3-yl-benzyl)-N-(1-thiophen-3-ylmethylpiperidin-4-yl)benzamide] | –
692 nM | CCCCCc1ccc(C(=O)N(Cc2ccc(-c3ccccc3)cc2)C2CCN(Cc3ccc(OC(F)(F)F)cc3)CC2)cc1 [Example 110, N-Biphenyl-4-ylmethyl-4-pentyl-N-[1-(4-trifluoromethoxybenzyl)piperidin-4-yl]benzamide] | –
– | CCCCCc1ccc(CN(C(=O)c2ccc(CCCCC)cc2)C2CCN(Cc3ccccc3)CC2)cc1 [Example 26] | IC50 [2]: 497 nM
64 nM | CCCCCc1ccc(C(=O)N(Cc2ccc(-c3cccnc3)cc2)C2CCN(Cc3ccoc3)CC2)cc1 [Example 54, N-(1-Furan-3-ylmethylpiperidin-4-yl)-4-pentyl-N-(4-pyridin-3-yl-benzyl)benzamide] | –
95 nM | CCCCCc1ccc(C(=O)N(Cc2ccc(-c3ccccc3F)cc2)C2CCN(Cc3ccncc3)CC2)cc1 [Example 63, N-(2′-Fluorobiphenyl-4-ylmethyl)-4-pentyl-N-(1-pyridin-4-ylmethyl-piperidin-4-yl)benzamide] | –
152 nM | CCCCCc1ccc(C(=O)N(Cc2ccc(-c3ccccc3F)cc2)C2CCN(Cc3ccc(O)cc3)CC2)cc1 [Example 76, N-(2′-Fluorobiphenyl-4-ylmethyl)-N-[1-(4-hydroxybenzyl)piperidin-4-yl]-4-pentylbenzamide] | –
104 nM | CCCCCc1ccc(C(=O)N(Cc2ccc(-c3ccncc3)cc2)C2CCN(Cc3ccccc3)CC2)cc1 [Example 66, N-(1-Benzylpiperidin-4-yl)-4-pentyl-N-(4-pyridin-4-ylbenzyl)benzamide] | –
140 nM | CCCCCc1ccc(C(=O)N(Cc2ccc(-c3cccc(C)c3)cc2)C2CCN(Cc3ccccc3)CC2)cc1 [Example 74, N-(1-Benzylpiperidin-4-yl)-N-(3′-methylbiphenyl-4-ylmethyl)-4-pentylbenzamide] | –
– | CCCCCCCCCCCC(=O)N(Cc1ccc(OCc2ccccc2)c(OCc2ccccc2)c1)C1CCN(Cc2ccccc2)CC1 [Example 13] | IC50 [2]: 2400 nM
839 nM | CCCCCc1ccc(C(=O)N(Cc2ccc(N(CCCC)CCCC)cc2)C2CCN(Cc3ccccc3)CC2)cc1 [Example 115, N-(1-Benzylpiperidin-4-yl)-N-(4-dibutylaminobenzyl)-4-pentyl-benzamide] | –
79 nM | CCCCCc1ccc(C(=O)N(Cc2ccc(OCc3ccc(F)cc3)cc2)C2CCN(Cc3ccccc3)CC2)cc1 [Example 58, N-(1-Benzyl-piperidin-4-yl)-N-[4-(4-fluoro-benzyloxy)-benzyl]-4-pentyl-benzamide] | –
– | CCCCCc1ccc(C(=O)N(Cc2ccc(OCc3ccccc3)cc2)C2CCN(Cc3ccccc3)CC2)cc1 [Example 1] | IC50 [2]: 70 nM
322 nM | CCCCCc1ccc(C(=O)N(Cc2ccc(OC)cc2)C2CCN(Cc3ccccc3)CC2)cc1 [Example 98, N-(1-Benzylpiperidin-4-yl)-N-(4-methoxybenzyl)-4-pentyl-benzamide] | –
– | CCCCCc1ccc(C(=O)N(Cc2ccc(C(F)(F)F)cc2)C2CCN(Cc3ccccc3)CC2)cc1 [Example 18] | IC50 [2]: 148 nM
– | CCCCCc1ccc(C(=O)N(Cc2ccc(Oc3ccccc3)cc2)C2CCN(Cc3ccccc3)CC2)cc1 [Example 7] | IC50 [2]: 462 nM
255 nM | CCCCCc1ccc(CN(Cc2ccc(-c3ccc(OC)c(OC)c3)cc2)C2CCN(Cc3ccccc3)CC2)cc1 [Example 88, (1-Benzylpiperidin-4-yl)-(3′,4′-dimethoxybiphenyl-4-ylmethyl)-(4-pentyl-benzyl)amine] | –
281 nM | CCCCCc1ccc(C(=O)N(Cc2ccc(OCc3ccccc3)cc2O)C2CCN(Cc3ccccc3)CC2)cc1 [Example 92, N-(4-Benzyloxy-2-hydroxy-benzyl)-N-(1-benzylpiperidin-4-yl)-4-pentylbenzamide] | –
128 nM | CCCCCc1ccc(C(=O)N(Cc2ccc(-c3cccnc3)cc2)C2CCN(CC3CC3)CC2)cc1 [Example 73, N-(1-Cyclopropylmethylpiperidin-4-yl)-4-pentyl-N-(4-pyridin-3-yl-benzyl)benzamide] | –
– | CCCCCc1ccc(CN(Cc2ccc(-c3ccccc3)cc2)C2CCCN(Cc3ccccc3)CC2)cc1 (racemic) [Example 34] | IC50 [2]: 1970 nM

Compound | IC50 [1] | also measured
CCCCCc1ccc(C(=O)N(Cc2ccc(OCc3ccccc3)cc2)C2CCN(CCc3ccccc3)CC2)cc1 [Example 112, N-(4-Benzyloxybenzyl)-4-pentyl-N-(1-phenethylpiperidin-4-yl)benzamide] | 761 nM | –
